Key:
[1] = Stability, protonation and conditional stability constants (pGd) of Gd(III)-complexes (out-of-cell pH-potentiometry, 1H NMR relaxometry, competition with AAZTA); assay type: physicochemical; details: for conditional stability higher than that of the racemic counterparts: logK^c GdL and pGd; for conditional stability higher than that of the racemic counterparts / pGd / logK^cGdL and pGd higher than that of the parent [Gd(PCTA)]: pH 7.4; for logK^c GdL: conditional stability constant at pH 7.4; for *logKGd(H2L): diprotonated out-of-cage intermediate; for pGd: pGd = -log[Gd^3+]free, [Gd^3+]tot = 1 µM, [L]tot = 10 µM; for logKGdLH-1: deprotonation of inner-sphere water; for stability constant of Gd(III)-complex higher than that of the racemic complex: vs [Gd(rac-L1)]3- and [Gd(rac-L2)]
Protocol: (§1) The protonation constants of ligands, the stability and protonation constants of Ca(II)‐ and Zn(II)‐complexes formed with rac‐L1, ent‐L1, rac‐L2, and ent‐L2 ligands were determined by pH‐potentiometric titration. The metal‐to‐ligand concentration ratio was 1:1 (the concentration of the ligand was generally 0.002 M). The protonation constants of the Cu(II)‐ and Gd(III)‐complexes were determined using pH‐potentiometry by titrating the pre‐prepared complexes from pH 2.0 to 12.0 with 0.2 M NaOH. The stability constants of the Gd(III)‐complexes with rac‐L1 and ent‐L1 ligands were determined by the “out‐of‐cell” technique because of their slow formation reaction. The pH range of the complexation equilibria and the time needed to reach the equilibria were determined by relaxometry. Eight–eight Gd(III) – rac‐L1 and Gd(III) – ent‐L1 samples were prepared, with pH values in the range of 1.7–3.0 at equilibrium ([Gd^3+] = [L] = 0.002 M). The samples were kept at 25 °C for 6 weeks to reach equilibrium. For the calculation of the stability constants of the [Gd(rac‐L1)]^3− and [Gd(ent‐L1)]^3− complexes, besides the protonation constants of ligands and the Gd(III) complexes, the stability constants of the di‐protonated [^*Gd(H2 rac‐L1)]^− and [^*Gd(H2 […])]^− out‐of‐cage complexes (considered as intermediates) was also used as fixed values, which were calculated from the pH‐potentiometric titration curve of the Gd(III) – rac‐L1 and Gd(III) – ent‐L1 system obtained in the pH range of 1.7–7.0.
(§2) For the pH measurements and titrations, the Metrohm 888 Titrando titration workstation Metrohm‐6.0234.110 combined electrode was used. Equilibrium measurements were carried out at a constant ionic strength (0.15 M NaCl) in 6 mL samples at 25 °C. The solutions were stirred, and N2 was bubbled through them. The titrations were made in the pH range 1.7–12.0. KH‐Phthalate (pH 4.005) and borax (pH 9.177) buffers were used to calibrate the pH meter. For the calculation of [H^+] from the measured pH values, the method proposed by Irving et al. was used as follows.^[ [46] ^] A 0.01M HCl solution was titrated with standardized NaOH solution at 0.15 M NaCl ionic strength. The differences (A) between the measured (pHread) and calculated pH (‐log[H^+]) values were used to obtain the equilibrium H^+ concentration from the pH values measured in the titration experiments (A = 0.02). For the equilibrium calculations, the stoichiometric water ionic product (pK w) was also needed in order to calculate [OH^−] values under basic conditions. The VNaOH – pHread data pairs of the HCl – NaOH titration obtained in the pH range 10.5–12.0 were used to calculate the pK w value (pK w = 13.83).
The stability constant of Gd(III)‐complexes with rac‐L2 and ent‐L2 ligands were determined by the measurement of the proton relaxation rates (r 1) studying the competition reaction of rac‐L2 and ent‐L2 ligands with AAZTA for Gd(III) ion at pH = 4.0 in 0.15 M NaCl solution. In these experiments, the concentration of Gd^3+, rac‐L2, and ent‐L2 ligands was 2.0 mM, while that of the AAZTA was varied between 1.0 and 6.0 mM (5 × 1.5 mL samples). The pH was adjusted to pH 4.0 by stepwise addition of concentrated NaOH or HCl solutions. The samples were kept at 70 °C for a month and then at 25°C for two months in order to attain the equilibrium (the time needed to reach the equilibria was determined by ^1H‐NMR relaxometry). ^1H‐NMR relaxometric measurement of Gd(III) – rac‐L2 – AAZTA and Gd(III) – ent‐L2 – AAZTA systems were performed with a Bruker Avance III 400 (9.4 T) equipped with BB inverse z gradient probe (5 mm). […]

[2] = Protonation constants of the ligands (pH-potentiometry); assay type: physicochemical; details: 0.15 M NaCl, 25 °C; for ΣlogKi^H: total basicity
Protocol: as §1, §2
The protonation constants of ligands, defined by Equation (S1), were determined by pH-potentiometry.
where i=1, 2…7. Standard deviations (3σ) are shown in parentheses. In Table S16, the logKi^H values of rac-L1 and rac-L2 can be regarded as the weighted average of the given protonation constant characterizing the basicity of the related protonation site in the different stereoisomers.

SMILES	conditional stability higher than that of the racemic counterparts [1]	logK1^H [2]	logK2^H [2]	logK3^H [2]	logK4^H [2]	logK5^H [2]	logK6^H [2]	logK7^H [2]	ΣlogKi^H [2]	logK GdL ([1]; 0.15 M NaCl, 25 °C)	logKGdH2L ([1]; 0.15 M NaCl, 25 °C)	logKGdH3L ([1]; 0.15 M NaCl, 25 °C)	logKGdH4L ([1]; 0.15 M NaCl, 25 °C)	logKGdHL ([1]; 0.15 M NaCl, 25 °C)	logK^c GdL ([1]; 0.15 M NaCl)	*logKGd(H2L) ([1]; 0.15 M NaCl, 25 °C)	pGd ([1]; 0.15 M NaCl)	logKGdLH-1 ([1]; 0.15 M NaCl, 25 °C)	logK^cGdL and pGd higher than that of the parent [Gd(PCTA)] [1]	stability constant of Gd(III)-complex higher than that of the racemic complex [1] [logK unit]
O=C([O-])CCC(C(=O)[O-])N1CCN(C(CCC(=O)[O-])C(=O)[O-])Cc2cccc(n2)CN(C(CCC(=O)[O-])C(=O)[O-])CC1.[Gd+3] (racemic) [[Gd(ent‐L1)]^3−]	0.6 – 1.5 logK unit																			
O=C(O)CCC(C(=O)O)N1CCN(C(CCC(=O)O)C(=O)O)Cc2cccc(n2)CN(C(CCC(=O)O)C(=O)O)CC1 (racemic) [rac‐L1, 2,2’,2’’-[3,6,9,15-tetraazabicyclo[9.3.1]pentadeca-1(15),11,13-triene-3,6,9-triyl]tripentanedioic acid]		10.58 (1)	6.99 (1)	5.50 (1)	4.82 (1)	4.23 (1)	3.65 (1)	2.34 (2)	38.11	18.65(5)	4.43 (3)	4.35 (3)	2.25 (3)	5.32 (2)	15.34	3.58 (2)	16.33			
O=C(CCC(C(=O)O)N1CCN(C(CCC(=O)NCC(O)CO)C(=O)O)Cc2cccc(n2)CN(C(CCC(=O)NCC(O)CO)C(=O)O)CC1)NCC(O)CO (racemic) [rac‐L2]		9.58 (1)	5.96 (2)	4.30 (3)	2.86 (3)				22.70	18.96 (7)					16.76		17.70	11.15 (4)	0.6 – 1.2 logK unit	
O=C(CCC(C(=O)[O-])N1CCN(C(CCC(=O)NCC(O)CO)C(=O)[O-])Cc2cccc(n2)CN(C(CCC(=O)NCC(O)CO)C(=O)[O-])CC1)NCC(O)CO.[Gd+3] (stereo not drawn) [[Gd(ent‐L2)]]	0.6 – 1.5 logK unit																			
O=C(O)CCC(C(=O)O)N1CCN(C(CCC(=O)O)C(=O)O)Cc2cccc(n2)CN(C(CCC(=O)O)C(=O)O)CC1 (stereo not drawn) [ent‐L1]		10.62 (1)	6.82 (1)	5.50 (2)	4.89 (2)	4.19 (2)	3.88 (2)	2.30 (2)	38.20	20.17 (9)	4.52 (1)	4.15 (2)		5.28 (1)	16.85	4.00 (3)	17.80		0.6 – 1.2 logK unit	1.5
O=C(CCC(C(=O)O)N1CCN(C(CCC(=O)NCC(O)CO)C(=O)O)Cc2cccc(n2)CN(C(CCC(=O)NCC(O)CO)C(=O)O)CC1)NCC(O)CO (stereo not drawn) [ent‐L2]		10.43(1)	5.95 (1)	4.08 (1)	2.05 (2)				22.51	20.36 (3)					17.31		18.27	11.66 (1)	0.6 – 1.2 logK unit	1.5
